Measured values from ChEMBL document CHEMBL5223119, “Discovery of pyrrolo[2,3-d]pyrimidine-based molecules as a Wee1 inhibitor template” (Bioorg Med Chem Lett, 2022).

Key:
[1] = AUC (0-infinity) in rat at 5 mg/kg,IG measured upto 24 hrs by LC-MS/MS analysis; assay type: ADME, organism-based; set-up: dose 5 mg/kg, time < 24 hrs, route ig; conditions: in vivo, po
NCI-H1299 = experiment: Antiproliferative activity against human NCI-H1299 cells assessed as cell growth inhibition incubated for 3 days by CellTiter-Glo Luminescent assay; assay type: functional, cell-based; conditions: NCI-H1299, 72 h
[2] = Half life in rat at 5 mg/kg,IG measured upto 24 hrs by LC-MS/MS analysis; assay type: ADME, organism-based; conditions: in vivo, po
Wee1-like protein kinase = Wee1-like protein kinase (Homo sapiens, UniProt P30291); experiment: Inhibition of Wee1 (unknown origin) incubated for 60 mins by LanthaScreen Eu-Kinase binding assay
[3] = Cmax in rat at 5 mg/kg,IG measured upto 24 hrs by LC-MS/MS analysis; assay type: ADME, organism-based; set-up: dose 5 mg/kg, time < 24 hrs, route ig; conditions: in vivo, po
[4] = Tmax in rat at 5 mg/kg,IG measured upto 24 hrs by LC-MS/MS analysis; assay type: ADME, organism-based; conditions: in vivo, po

Sequence of Wee1-like protein kinase (P30291 whole entry): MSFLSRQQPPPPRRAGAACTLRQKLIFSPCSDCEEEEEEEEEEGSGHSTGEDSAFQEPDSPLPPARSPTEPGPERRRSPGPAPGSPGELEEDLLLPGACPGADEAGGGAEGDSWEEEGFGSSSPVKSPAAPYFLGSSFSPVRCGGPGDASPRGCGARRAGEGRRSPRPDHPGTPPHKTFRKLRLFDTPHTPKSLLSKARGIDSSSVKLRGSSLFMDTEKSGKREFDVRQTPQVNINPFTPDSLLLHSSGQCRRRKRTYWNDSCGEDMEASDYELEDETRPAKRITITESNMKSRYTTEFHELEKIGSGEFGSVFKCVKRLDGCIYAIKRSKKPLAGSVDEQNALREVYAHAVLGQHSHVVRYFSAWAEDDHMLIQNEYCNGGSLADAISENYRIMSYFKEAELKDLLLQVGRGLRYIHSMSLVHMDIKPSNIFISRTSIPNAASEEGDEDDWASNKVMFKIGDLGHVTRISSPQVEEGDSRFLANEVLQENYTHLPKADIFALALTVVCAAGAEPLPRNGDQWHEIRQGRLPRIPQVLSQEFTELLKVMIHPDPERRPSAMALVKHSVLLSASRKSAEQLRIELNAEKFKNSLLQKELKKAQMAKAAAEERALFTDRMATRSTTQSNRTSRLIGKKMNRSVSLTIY

SMILES | AUC(0-inf) [1] | IC50 (NCI-H1299) | half-life [2] | IC50 (Wee1-like protein kinase) | Cmax [3] | Tmax [4]
CN1CCC2(CC1)CCN(c1ccc(Nc3ncc4cc(C5CC5)n(-c5cccc(C(C)(C)O)n5)c4n3)cc1)CC2 | 4070 ng·h/mL | 199 nM | 19.2 h |  | 163 ng/mL | 4.8 h
CCCc1c(F)c2cnc(Nc3ccc(N4CCOCC4)cc3)nc2n1-c1cccc(N=S(C)(C)=O)n1 |  | 332 nM |  | 3.37 nM |  | 
CN1CCN(c2ccc(Nc3ncc4c(F)c(C5CC5)n(-c5cccc(C(C)(C)O)n5)c4n3)cc2)CC1 |  | 288 nM |  | 38.2 nM |  | 
Cc1cc2cnc(Nc3ccc(N4CCN(C)CC4)cc3)nc2n1-c1cccc(N=S(C)(C)=O)n1 |  | 59 nM |  |  |  | 
CC(C)c1cc2cnc(Nc3ccc(N4CCN(C)CC4)cc3)nc2n1-c1cccc(N=S(C)(C)=O)n1 |  | 100 nM |  |  |  | 
Cc1cc2cnc(Nc3ccc(N4CCN(C)CC4)cc3)nc2n1-c1cccc(C(C)(C)O)n1 | 710 ng·h/mL |  | 3.56 h |  | 125 ng/mL | 1 h
CCc1cc2cnc(Nc3ccc(N4CCN(C)CC4)cc3)nc2n1-c1cccc(N=S(C)(C)=O)n1 | 48 ng·h/mL | 23 nM | 2.24 h |  | 8.1 ng/mL | 2.67 h
COCc1cc2cnc(Nc3ccc(N4CCN(C)CC4)cc3)nc2n1-c1cccc(N=S(C)(C)=O)n1 |  | 101 nM |  | 2.03 nM |  | 
CCCc1cc2cnc(Nc3ccc(N4CCOCC4)cc3)nc2n1-c1cccc(N=S(C)(C)=O)n1 |  | 451 nM |  | 8.3 nM |  | 
C=CCn1c(=O)c2cnc(Nc3ccc(N4CCN(C)CC4)cc3)nc2n1-c1cccc(C(C)(C)O)n1 [ADAVOSERTIB] |  | 104 nM |  |  |  | 

More lines, now with the values ahead:

AUC(0-inf) [1] | IC50 (NCI-H1299) | half-life [2] | IC50 (Wee1-like protein kinase) | Cmax [3] | Tmax [4] | SMILES
4580 ng·h/mL | 623 nM | 33.4 h | 10.6 nM | 117 ng/mL | 6.7 h | CN1CCN(C2CCN(c3ccc(Nc4ncc5c(F)c(C6CC6)n(-c6cccc(C(C)(C)O)n6)c5n4)cc3F)CC2)CC1
1750 ng·h/mL | 211 nM | 10.9 h | 0.86 nM | 83 ng/mL | 6 h | CN1CCN(C2CCN(c3ccc(Nc4ncc5c(F)c(C6CC6)n(-c6cccc(C(C)(C)O)n6)c5n4)cc3)CC2)CC1
 | 126 nM |  |  |  |  | CCCc1cc2cnc(Nc3ccc(N4CCN(C)CC4)cc3)nc2n1-c1cccc(C(C)(C)O)n1
 |  |  | 0.1 nM |  |  | CCc1cc2cnc(Nc3ccc(N4CCN(C)CC4)cc3)nc2n1-c1cccc(C(C)(C)O)n1
 | 91 nM |  | 0.42 nM |  |  | CC(C)c1cc2cnc(Nc3ccc(N4CCN(C)CC4)cc3)nc2n1-c1cccc(C(C)(C)O)n1
 | 156 nM |  | 2.54 nM |  |  | CN1CCN(C2CCN(c3ccc(Nc4ncc5cc(C6CC6)n(-c6cccc(N=S(C)(C)=O)n6)c5n4)cc3)CC2)CC1
 | 87 nM |  |  |  |  | CCCc1cc2cnc(Nc3ccc(N4CCC(N5CCN(C)CC5)CC4)cc3)nc2n1-c1cccc(N=S(C)(C)=O)n1
 | 105 nM |  | 1.33 nM |  |  | CN1CCN(C2CCN(c3ccc(Nc4ncc5cc(C6CC6)n(-c6cccc(C(C)(C)O)n6)c5n4)cc3)CC2)CC1
 | 42 nM |  |  |  |  | CN1CCN(c2ccc(Nc3ncc4cc(C5CC5)n(-c5cccc(N=S(C)(C)=O)n5)c4n3)cc2F)CC1
314 ng·h/mL | 43 nM | 4.58 h |  | 36.8 ng/mL | 1.67 h | CCCc1c(F)c2cnc(Nc3ccc(N4CCN(C)CC4)cc3)nc2n1-c1cccc(N=S(C)(C)=O)n1
 | 1720 nM |  | 9.3 nM |  |  | CCCc1c(F)c2cnc(Nc3ccc(N4CCN(C)CC4)cc3)nc2n1-c1cccc(C(C)(C)O)n1
286 ng·h/mL | 42 nM | 8.26 h | 0.92 nM | 76.9 ng/mL | 0.92 h | CN1CCN(c2ccc(Nc3ncc4cc(C5CC5)n(-c5cccc(N=S(C)(C)=O)n5)c4n3)cc2)CC1
188 ng·h/mL | 33 nM | 3.24 h |  | 29.4 ng/mL | 2.33 h | CCCc1cc2cnc(Nc3ccc(N4CCN(C)CC4)cc3)nc2n1-c1cccc(N=S(C)(C)=O)n1
